Patent US8906909B2 (Curis, Inc., priority 2009, dated 2014)

Tests used:
Sk-Mel-28 cells = experiment: Cell proliferation assay Method A (ATPlite), Sk-Mel-28; assay type: cell-based; conditions: Homo sapiens, 72 hours, read-out: antiproliferative activity IC50, Sk-Mel-28
Method in brief: (§1)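 Cells seeded at 5,000–10,000 per well with graded compound concentrations and cultured 72 h in 0.5% fetal bovine serum. Growth inhibition read as cellular ATP content by firefly luciferase luminescence (ATPlite).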

SUP-B15 cells = experiment: Cell proliferation assay Method B, SUP-B15; assay type: cell-based; conditions: Homo sapiens, ALL, 72 hours, read-out: antiproliferative activity IC50, SUP-B15
Description: (§2) Cancer cell lines were plated at 5,000 to 10,000 per well in 96-well flat bottomed plates with various concentration of compounds. The cells were incubated with compounds for 72 hours in the presence of 0.5% of fetal bovine serum. Growth inhibition was accessed by adenosine triphosphate (ATP) content assay using Promega CellTiter-Glo kit. Promega CellTiter-Glo kit is an ATP monitoring system based on firefly luciferase. Briefly, 16 μl of mammalian cell lysis and substrate solution was added to 84 μl of culture medium per well to lyse the cells and stabilize the ATP. The mixture was shaken and incubated for 30 minutes and subsequently the luminescence was measured.

PI3Kδ (p110δ/p85α) = molecular target: T1, PI3Kδ (p110δ/p85α) (Homo sapiens, UniProt O00329); experiment: PI3Kδ fluorescence polarization assay; assay type: biochemical; conditions: 10 μM ATP
T1 construct: N-terminal histidine-tagged recombinant full-length human p110δ; His tag (N); made in house; host or cells: Baculovirus-infected Sf9 insect cells
Description: The proteins are purified by one-step affinity chromatography using glutathione-agarose. […] The reaction product was then mixed with a PIP3 detector protein and the fluorescent PIP3 probe. Polarization (mP) values decrease as fluorescent probe binding to the PIP3 detector is displaced by PIP3 produced by enzymatic activity and the amount of unbound fluorescent probe in the mixture increases. Polarization degrees (mP) value was determined using microplate reader with background subtraction.

BT-474 cells = experiment: Cell proliferation assay Method A (ATPlite), BT-474; assay type: cell-based; conditions: Homo sapiens, 72 hours, read-out: antiproliferative activity IC50, BT-474
Method in brief: as §1

T-84 cells = experiment: Cell proliferation assay Method B, T-84; assay type: cell-based; conditions: Homo sapiens, T84, Colon, 72 hours, read-out: antiproliferative activity IC50, T-84
Description: as §2

SWI-116 cells = experiment: Cell proliferation assay Method B, SWI-116; assay type: cell-based; conditions: Colon, 72 hours, read-out: antiproliferative activity IC50, SWI-116
Description: as §2

PANC-1 cells = experiment: Cell proliferation assay Method B, PANC-1; assay type: cell-based; conditions: Homo sapiens, Pancreas, 72 hours, read-out: antiproliferative activity IC50, PANC-1
Description: as §2

CFPAC-1 cells = experiment: Cell proliferation assay Method B, CFPAC-1; assay type: cell-based; conditions: Homo sapiens, Pancreas, 72 hours, read-out: antiproliferative activity IC50, CFPAC-1
Description: as §2

A549 cells = experiment: Cell proliferation assay Method B, A549; assay type: cell-based; conditions: Homo sapiens, NSCLC, 72 hours, read-out: antiproliferative activity IC50, A549
Description: as §2

H292 cells = experiment: Cell proliferation assay Method B, H292; assay type: cell-based; conditions: Homo sapiens, NCI-H292, NSCLC, 72 hours, read-out: antiproliferative activity IC50, H292
Description: as §2

CaPan2 cells = experiment: Cell proliferation assay Method B, CaPan2; assay type: cell-based; conditions: Homo sapiens, Capan-2, Pancreas, 72 hours, read-out: antiproliferative activity IC50, CaPan2
Description: as §2

H2122 cells = experiment: Cell proliferation assay Method B, H2122; assay type: cell-based; conditions: Homo sapiens, NCI-H2122, NSCLC, 72 hours, read-out: antiproliferative activity IC50, H2122
Description: as §2

LN-Cap cells = experiment: Cell proliferation assay Method B, LN-Cap; assay type: cell-based; conditions: Homo sapiens, LNCaP, Prostate, 72 hours, read-out: antiproliferative activity IC50, LN-Cap
Description: as §2

WiDr cells = experiment: Cell proliferation assay Method B, WiDr; assay type: cell-based; conditions: Homo sapiens, Colon, 72 hours, read-out: antiproliferative activity IC50, WiDr
Description: as §2

H358 cells = experiment: Cell proliferation assay Method B, H358; assay type: cell-based; conditions: Homo sapiens, NCI-H358, NSCLC, 72 hours, read-out: antiproliferative activity IC50, H358
Description: as §2

T1 sequence (O00329 whole entry): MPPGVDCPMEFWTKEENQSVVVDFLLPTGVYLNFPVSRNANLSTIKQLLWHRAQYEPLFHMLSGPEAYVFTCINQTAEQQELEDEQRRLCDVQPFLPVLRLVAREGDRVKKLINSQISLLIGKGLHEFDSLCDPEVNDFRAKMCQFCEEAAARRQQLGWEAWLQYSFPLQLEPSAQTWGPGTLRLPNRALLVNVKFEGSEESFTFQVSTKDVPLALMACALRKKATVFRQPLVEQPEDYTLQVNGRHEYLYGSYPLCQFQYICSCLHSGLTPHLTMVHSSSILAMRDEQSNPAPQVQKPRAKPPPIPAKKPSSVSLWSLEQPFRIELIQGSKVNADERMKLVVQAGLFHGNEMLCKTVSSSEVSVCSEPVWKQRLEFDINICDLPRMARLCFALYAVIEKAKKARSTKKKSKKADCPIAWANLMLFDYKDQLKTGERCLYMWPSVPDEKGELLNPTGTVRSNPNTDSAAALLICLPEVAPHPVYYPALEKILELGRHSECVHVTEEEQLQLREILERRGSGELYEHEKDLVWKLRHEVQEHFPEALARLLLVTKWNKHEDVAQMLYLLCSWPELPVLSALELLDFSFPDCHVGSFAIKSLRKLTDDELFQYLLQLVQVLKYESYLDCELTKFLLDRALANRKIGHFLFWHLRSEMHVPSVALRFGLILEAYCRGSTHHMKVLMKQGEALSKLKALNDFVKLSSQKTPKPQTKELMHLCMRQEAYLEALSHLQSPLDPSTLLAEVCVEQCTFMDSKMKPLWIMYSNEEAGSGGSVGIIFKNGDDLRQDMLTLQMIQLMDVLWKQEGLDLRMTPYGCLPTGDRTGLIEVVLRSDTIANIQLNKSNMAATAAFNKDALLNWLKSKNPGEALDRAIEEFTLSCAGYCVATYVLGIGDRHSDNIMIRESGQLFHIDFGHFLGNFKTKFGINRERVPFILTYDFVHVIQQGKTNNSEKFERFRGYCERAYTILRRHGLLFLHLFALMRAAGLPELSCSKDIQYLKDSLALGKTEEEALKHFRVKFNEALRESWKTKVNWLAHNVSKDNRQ
T1 sequence (P27986 whole entry partner): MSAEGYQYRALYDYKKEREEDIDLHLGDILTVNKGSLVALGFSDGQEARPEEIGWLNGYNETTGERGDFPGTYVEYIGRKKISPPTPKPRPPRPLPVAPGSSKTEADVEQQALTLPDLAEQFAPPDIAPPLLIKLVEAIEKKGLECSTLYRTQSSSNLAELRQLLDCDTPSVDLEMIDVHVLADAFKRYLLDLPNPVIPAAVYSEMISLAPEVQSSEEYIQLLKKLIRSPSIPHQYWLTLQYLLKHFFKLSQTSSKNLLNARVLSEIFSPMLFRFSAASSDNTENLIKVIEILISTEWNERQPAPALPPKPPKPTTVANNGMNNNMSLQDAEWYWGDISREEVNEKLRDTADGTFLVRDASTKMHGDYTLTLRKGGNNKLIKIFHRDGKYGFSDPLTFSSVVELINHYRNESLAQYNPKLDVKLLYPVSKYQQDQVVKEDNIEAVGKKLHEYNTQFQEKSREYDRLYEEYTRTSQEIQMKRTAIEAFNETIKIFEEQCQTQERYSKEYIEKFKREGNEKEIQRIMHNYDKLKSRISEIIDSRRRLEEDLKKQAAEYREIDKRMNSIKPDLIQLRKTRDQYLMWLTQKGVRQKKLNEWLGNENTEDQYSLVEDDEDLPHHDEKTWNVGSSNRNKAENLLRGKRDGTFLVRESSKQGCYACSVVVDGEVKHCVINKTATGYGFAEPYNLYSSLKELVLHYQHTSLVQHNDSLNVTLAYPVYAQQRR

Compound `CN(Cc1cc2nc(-c3ccc(N)cc3)nc(N3CCOCC3)c2s1)c1ncc(C(=O)NO)cn1` [Compound 150, 2-(((2-(4-aminophenyl)-4-morpholinothieno[3,2-d]pyrimidin-6-yl)methyl)(methyl)amino)-N-hydroxypyrimidine-5-carboxamide] has an IC50 (Sk-Mel-28 cells) of less than 100 nM, an IC50 (SUP-B15 cells) of less than 10 nM and an IC50 (PI3Kδ (p110δ/p85α)) of less than 100 nM. It also gave an IC50 (BT-474 cells) of less than 100 nM.
`CS(=O)(=O)N1CCN(Cc2cc3nc(-c4cccc5[nH]ncc45)nc(N4CCOCC4)c3s2)CC1` [GDC-0941, reference compound] gave an IC50 (T-84 cells) of 1000 to 10000 nM, an IC50 (SWI-116 cells) greater than 10000 nM and an IC50 (PANC-1 cells) of 1000 to 10000 nM. For the same compound, the IC50 (CFPAC-1 cells) was greater than 10000 nM, the IC50 (A549 cells) was 1000 to 10000 nM and the IC50 (H292 cells) was 1000 to 10000 nM. The IC50 (CaPan2 cells) was greater than 10000 nM, the IC50 (H2122 cells) was 1000 to 10000 nM and the IC50 (LN-Cap cells) was 100 to 1000 nM. For the same compound, the IC50 (WiDr cells) was greater than 10000 nM and the IC50 (H358 cells) was 1000 to 10000 nM.
